Measured values published in patent US6762188B1, “Pharmaceutically active benzoquinazoline compounds” (SmithKline Beecham Corporation, priority 1990, dated 2004).
Read-outs that look alike come from different tables or passages of the source.

What was measured:
[1] = Cell culture cytotoxicity, D98; type: cell-based; details: human, D98 bone marrow cell line, read-out: Tumor Cell Culture Cytotoxicity IC50 Other (D98)
Method: (§1) Cells are seeded into 96-well plates using a Perkin-Elmer Pro/pette. SW480 and A427 were seeded at 8,000 cells per well, MCF-7 at 10,000, Widr at 7500, and MOLT-4 at 12,500 cells per well, all in 150 µl of medium. Prior to the addition of drugs, cultures were incubated for 24 hrs at 37°. Compounds were added at 2×concentration in 150 l of medium and each concentration was assayed in triplicate. If DMSO or ethanol were used to solubilize compounds, appropriate controls were run if the concentration exceeded 0.01%. Cultures were incubated for 72 hours (96 hours for SW480 and MCF-7) in a 37° humidified incubator at 5% CO2. Inhibition of cell growth was measured using the MTT dye reduction assay.
(§2) Cell dilutions for a standard curve were prepared from a 72 hour log-phase culture. Serial dilutions were seeded in triplicate in 96-well plates and incubated at 37 degrees for one hour. MTT (3-(4,5-dimethylthiazol-2-yl)-2,5-diphenyltetrazolium bromide) was dissolved in PBS at 5 mg/ml and sonicated for 30 seconds. Using the Perkin Elmer Pro/pette, 200 μl of medium was removed and 100 μl of MTT added to the wells of the standard curve and test plates. Suspension cultures were spun for 5 min at 1000 rpm before removing medium from the wells. Plates were incubated for 1 hour at 370 on a platform shaker. Following this incubation 100 ml of medium was removed from the wells and 100 μl of DMSO added to each well. The plates were sonicated for approximately 10 seconds to solubilize the precipitated formazan dye. The absorbance of each well was measured using a Titertek Multiscan MC microtiter plate reader at 570 nm with a reference wavelength of 750 nm. Data was collected using a Mariachi Seed-2 and stored and analyzed using an IBM-AT and Lotus 1-2-3 software.

[2] = Cell culture cytotoxicity, L cells; type: cell-based; details: mouse, L fibroblast cell line, read-out: Tumor Cell Culture Cytotoxicity IC50 Other (L)
Method: as §1, §2

[3] = biological target: T1, Mammalian Thymidylate Synthase (Homo sapiens, UniProt P04818); assay: Thymidylate synthase inhibition, tritium release assay; type: biochemical
T1 construct: made in house; host or cells: Escherichia coli
T1 sequence (P04818 whole entry): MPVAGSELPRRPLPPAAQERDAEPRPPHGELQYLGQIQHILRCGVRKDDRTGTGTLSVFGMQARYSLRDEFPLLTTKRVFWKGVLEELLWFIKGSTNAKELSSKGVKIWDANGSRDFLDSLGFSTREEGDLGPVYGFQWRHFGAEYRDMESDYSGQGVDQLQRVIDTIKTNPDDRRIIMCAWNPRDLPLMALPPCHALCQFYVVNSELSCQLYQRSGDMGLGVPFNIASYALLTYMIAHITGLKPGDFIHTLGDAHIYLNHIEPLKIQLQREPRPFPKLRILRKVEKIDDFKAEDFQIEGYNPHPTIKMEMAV

[4] = tested on: SW480 human colon adenocarcinoma; assay: Tumor cell culture cytotoxicity (MTT dye reduction), SW480
Method: SW480 and WiDr colon adenocarcinomas, MCF-7 breast adenocarcinoma, A427 lung carcinoma and MOLT-4 T-cell leukemia were used for the primary screening of compounds. […] MCF-7, A427 and SW480 were grown in the above medium further supplemented with sodium pyruvate.
as §1, §2

[5] = Table D, 5,6-dihydro 3-methyl derivatives
[6] = Homo sapiens, SW480, read-out: Tumor Cell Culture Cytotoxicity IC50 SW480, Table B, fully aromatic 3-amino derivatives
[7] = Table C, 5,6-dihydro 3-amino derivatives
[8] = Table E, fully aromatic 3-methyl derivatives
[9] = Homo sapiens, SW480, read-out: Cell Culture Cytotoxicity CCCT SW-480, Table G, dihydrobenzoquinazoline p-aminobenzoylglutamates
[10] = Homo sapiens, SW480, read-out: Cell Culture Cytotoxicity CCCT SW-480, Table F, fully aromatic p-aminobenzoylglutamates
[11] = Homo sapiens, SW480, read-out: Tumor Cell Culture Cytotoxicity IC50 SW480, Table E, fully aromatic 3-methyl derivatives

| Structure (SMILES) | IC50 [3] [µM] | IC50 [4, 6] [µM] | also measured |
| --- | --- | --- | --- |
| Cc1nc(O)c2c(n1)CCc1ccc(I)cc1-2 [5,6-Dihydro-9-iodo-3-methylbenzo(f)quinazolin-1(2H)-one] |  |  | IC50 at 72 h [1, 5]: 70 µM; IC50 at 72 h [2, 5]: 80 µM |
| Nc1nc2ccc3cc(F)cc([N+](=O)[O-])c3c2c(=O)[nH]1 [3-Amino-8-fluoro-10-nitrobenzo(f)quinazolin-1(2H)-one] | 1 to 300 | 50 |  |
| Nc1nc2c3ccccc3c3ccccc3c2c(=O)[nH]1 [2-Aminodibenzo(f,h)quinazolin-4(3H)-one] | 1 to 300 | 4 |  |
| Nc1nc2ccc3c([N+](=O)[O-])c(Br)ccc3c2c(=O)[nH]1 [3-Amino-8-bromo-7-nitrobenzo(f)quinazolin-1(2H)-one] | 1 to 300 | 25 |  |
| Cc1ccc2ccc3nc(N)nc(O)c3c2c1 [3-Amino-9-methylbenzo(f)quinazolin-1(2H)-one] | < 1 | 30 | IC50 at 72 h ([2]; Table B, fully aromatic 3-amino derivatives): 8 µM |
| Nc1nc2ccc3c(F)cccc3c2c(=O)[nH]1 [3-Amino-7-fluorobenzo(f)quinazolin-1(2H)-one] | 1 to 300 | 30 |  |
| CCSc1ccc2c(c1)-c1c(nc(N)[nH]c1=O)CC2 [3-Amino-9-(ethylthio)-5,6-dihydrobenzo(f)quinazolin-1(2H)-one] |  |  | IC50 at 72 h [1, 7]: 54 µM; IC50 at 72 h [2, 7]: 33 µM |
| Nc1nc2ccc3c(I)cccc3c2c(=O)[nH]1 [3-Amino-7-iodobenzo(f)quinazolin-1(2H)-one] | 1 to 300 | 10 |  |
| Nc1nc2ccc3ccc(O)cc3c2c(=O)[nH]1 [3-Amino-9-hydroxybenzo(f)quinazolin-1(2H)-one] | < 1 | 40 |  |
| Nc1ccc2ccc3nc(N)[nH]c(=O)c3c2c1 [3,9-Diaminobenzo(f)quinazolin-1(2H)-one] | < 1 | 80 |  |
| Cc1nc2c(c(=O)[nH]1)-c1cc(S(=O)(=O)Nc3ccc(F)cc3)ccc1CC2 [4′-Fluoro-1,2,5,6-tetrahydro-3-methyl-1-oxobenzo(f)quinazoline-9-sulfonanilide] |  |  | IC50 ([4]; Homo sapiens, SW480, read-out: Tumor Cell Culture Cytotoxicity IC50 SW480, Table D, 5,6-dihydro 3-methyl derivatives): 25 µM |
| Cc1nc2ccc3ccc(Cl)cc3c2c(=O)[nH]1 [9-Chloro-3-methylbenzo(f)quinazolin-1(2H)-one] |  |  | IC50 at 72 h [1, 8]: 82 µM; IC50 at 72 h [2, 8]: 80 µM |
| Cc1nc2ccc3ccc(CNc4ccc(C(=O)N[C@@H](CCC(=O)O)C(=O)O)s4)cc3c2c(=O)[nH]1 [N-((5-(((1,2-Dihydro-3-methyl-1-oxobenzo[f]quinazolin-9-yl)methyl)amino-2-thienyl)carbonyl)-L-glutamic acid] |  |  | IC50 ([4]; read-out: Tumor Cell Culture Cytotoxicity IC50 SW480, Table E, fully aromatic 3-methyl derivatives): 0.1 µM |
| CSc1ccc2c(c1)-c1c(nc(N)[nH]c1=O)CC2 [3-Amino-5,6-dihydro-9-(methylthio)benzo(f)quinazolin-1(2H)-one] |  |  | IC50 at 72 h [2, 7]: 46 µM |
| C#CCN(c1ccc(C(=O)N[C@@H](CCC(=O)O)C(=O)O)cc1)S(=O)(=O)c1ccc2c(c1)CCc1nc(N)[nH]c(=O)c1-2 [N-(4-(((3-Amino-1,2,5,6-tetrahydro-1-oxobenzo(f)quinazolin-8-yl)sulfonyl)(2-propynyl)amino)benzoyl)-L-glutamic acid] |  |  | IC50 [4, 9]: > 50 µM |
| Cc1nc2ccc3ccc(CN(C)c4ccc5c(c4)CN([C@@H](CCC(=O)O)C(=O)O)C5=O)cc3c2c(=O)[nH]1 [(S)-2-(5-(((1,2-Dihydro-3-methyl-1-oxobenzo[f]quinazolin-9-yl)methyl)methylamino)-1-oxo-2-isoindolinyl)glutaric acid] |  |  | IC50 [4, 10]: 0.5 µM |
| Nc1nc2c(c(=O)[nH]1)-c1ccc(S(=O)(=O)Nc3ccc(C(=O)N[C@@H](CCC(=O)O)C(=O)O)cc3)cc1CC2 [N-(4-(((3-Amino-1,2,5,6-tetrahydro-1-oxobenzo(f)quinazolin-8-yl)sulfonyl)amino)benzoyl)-L-glutamic acid] |  |  | IC50 [4, 9]: 25 µM |

| Structure (SMILES) | IC50 [3] [µM] | IC50 [4, 6] [µM] | also measured |
| --- | --- | --- | --- |
| Cc1cc2nc(N)nc(O)c2c2cc(Cl)ccc12 [3-Amino-9-chloro-6-methylbenzo(f)quinazolin-1(2H)-one] | < 1 | 2 |  |
| CCc1ccc2ccc3nc(N)[nH]c(=O)c3c2c1 [3-Amino-9-ethylbenzo(f)quinazolin-1(2H)-one] | < 1 | 20 |  |
| Cc1nc2ccc3ccc(CNc4ccc([N+](=O)[O-])cc4)cc3c2c(=O)[nH]1 [3-Methyl-9-((4-nitroanilino)methyl)benzo)(f)quinazolin-1(2H)-one] |  |  | IC50 [4, 11]: 0.4 µM |
| Cc1nc2ccc3ccc(CNc4ccc(C#N)cc4)cc3c2c(=O)[nH]1 [4-(((1,2-Dihydro-3-methyl-1-oxobenzo(f)quinazolin-9-yl)methyl)amino)benzonitrile] |  |  | IC50 [4, 11]: 0.03 µM |
| Cc1nc(O)c2c(ccc3ccc(F)cc32)n1 [9-Fluoro-3-methylbenzo(f)quinazolin-1(2H)-one] |  |  | IC50 at 72 h [1, 8]: 72 µM; IC50 at 72 h [2, 8]: 50 µM |
| Cc1nc2ccc3c(Cl)cccc3c2c(=O)[nH]1 [7-Chloro-3-methylbenzo(f)quinazolin-1(2H)-one] |  |  | IC50 at 72 h [2, 8]: 84 µM |
| Nc1nc2ccc3cc(F)cc(N)c3c2c(=O)[nH]1 [3,10-Diamino-8-fluorobenzo(f)quinazolin-1(2H)-one] | 1 to 300 | 70 |  |
| Cc1nc2ccc3cc(CNc4ccc(C(=O)N[C@@H](CCC(=O)O)C(=O)O)cc4)ccc3c2c(=O)[nH]1 [N-(4-(((1,2-Dihydro-3-methyl-1-oxobenzo[f]quinazolin-8-yl)methyl)amino)benzoyl)-L-glutamic acid] |  |  | IC50 [4, 10]: > 100 µM |
| Nc1nc2ccc3ccc(Br)c([N+](=O)[O-])c3c2c(=O)[nH]1 [3-Amino-9-bromo-10-nitrobenzo(f)quinazolin-1(2H)-one] | < 1 | 20 |  |
| Cc1nc2ccc3ccc(CCc4ccc(C(=O)N[C@@H](CCC(=O)O)C(=O)O)cc4)cc3c2c(=O)[nH]1 [N-(4-(2-(1,2-Dihydro-3-methyl-1-oxobenzo[f]quinazolin-9-yl)ethyl)benzoyl)-L-glutamic acid] |  |  | IC50 [4, 10]: 9 µM |
| Nc1nc2c(c(=O)[nH]1)-c1cc(S(=O)(=O)Nc3ccc(C(=O)N[C@@H](CCC(=O)O)C(=O)O)cc3)c(Br)cc1CC2 [N-(4-(((3-Amino-8-bromo-1,2,5,6-tetrahydro-1-oxobenzo(f)quinazolin-9-yl)sulfonyl)amino)benzoyl)-L-glutamic acid] |  |  | IC50 [4, 9]: > 50 µM |
| Cc1nc2ccc3ccc(CNc4ccc5c(=O)n([C@@H](CCC(=O)O)C(=O)O)sc5c4)cc3c2c(=O)[nH]1 [CH3,9-CH2NH, 2′-SNglu, (S)-2-(2.3-Dihydro-6-(((1,2-dihydro-3-methyl-1-oxobenzo[f]quinazolin-9-yl)methyl)amino)-3-oxo-1,2-benxisothiazol-2-yl)glutaric acid] |  |  | IC50 ([4]; read-out: Cell Culture Cytotoxicity CCCT SW-480, Table F, fully aromatic p-aminobenzoylglutamates): 2 µM |
| CCN(CC)S(=O)(=O)c1cc2c(ccc3nc(N)[nH]c(=O)c32)cc1Br [3-Amino-8-bromo-N,N-diethyl-1,2-dihydro-1-oxobenzo(f)quinazoline-9-sulfonamide] | 1 to 300 | 2.5 |  |
| Cc1nc2ccc3ccc(/C=C/c4ccc(C(=O)N[C@@H](CCC(=O)O)C(=O)O)cc4)cc3c2c(=O)[nH]1 [(E)-N-(4-(2(1,2-Dihydro-3-methyl-1-oxobenzo[f]quinazolin-9-yl)vinyl)benzoyl)-L-glutamic acid] |  |  | IC50 [4, 10]: > 100 µM |
| Cc1nc2ccc3ccc(Oc4ccc(C#N)cc4)cc3c2c(=O)[nH]1 [4-((1,2-Dihydro-3-methyl-1-oxobenzo[f]quinazolin-9-yl)oxy)benzonitrile] |  |  | IC50 [4, 11]: > 10 µM |
| Nc1nc2ccc3ccc(Br)c(N)c3c2c(=O)[nH]1 [3,10-Diamino-9-bromobenzo(f)quinazolin-1(2H)-one] | < 1 | 30 |  |
| Nc1nc2ccc3c(N)c(Br)ccc3c2c(=O)[nH]1 [3,7-Diamino-8-bromobenzo(f)quinazolin-1(2H)-one] | 1 to 300 | 20 |  |
